{"source": "patent US20080039434A1", "about": "“Treatment of Interstitial Cystitis with Vitamin D Compounds” (BioXell S. p.A., priority 2004, published 2008)", "key": {"[1]": {"tested_on": "rats with CYP-induced cystitis", "assay": "Cystometry in rats with CYP induced chronic IC, Compound B", "type": "in vivo, rat", "conditions": "for # of NVBC / FP / MP / TP / amplitude of NVBC / Bl. Cap.: group value; for Bl. Cap.: unit from FIG. 5 legend", "source_text": "Wistar rats ([…] weighing 125-175 g, age 8 weeks) were used. Under general inhalation anesthesia with 2% isoflurane, polyethylene tubing (PE-50, Clay Adams, Parsippany, N.J.) with the end flared by heat was inserted into the dome of the bladder and secured in place with a 6-0 nylon purse string suture. The distal end of the tubing was sealed, tunneled subcutaneously and externalized through a small incision at the back of the neck. The tubing was then coiled and buried subcutaneously. Following recovery (5 days) subject animals underwent three intraperitoneal injections of CYP (Sigma Chemical, St. Louis, Mo.; 75 mg/kg each, intraperitoneal) over the period of nine days. […] Two weeks following the initiation of the treatment animals underwent a conscious cystometrogram to assess the function of the urinary bladder. […] An ethanol stock solution of Compound B (1 mg/ml) was dissolved in Miglyol vehicle at the appropriate concentration. Control animals received the vehicle containing the same amount of ethanol. Drug (or vehicle) treatment was carried out by daily gavage after weighing the animal. Drug solution was prepared calculating a final volume of 100 ul/10 grams body weight. Following two weeks of treatment, animals were placed unrestrained in a cage and the distal end of the catheter was extracted from the subcutaneous pouch and connected via T-tube to a pressure transducer (Grass® Model PT300, West Warwick, R.I.) and microinjection pump (Harvard Apparatus 22, South Natick, Mass.). Saline solution (0.9%, room temperature) was infused into the bladder at a rate of 10 ml/h. Intravesical pressure was recorded continuously using a Neurodata Acquisition System (Grass®, Astro-Med, West Warwick, R.I.). At a minimum, three reproducible micturition cycles were recorded. […] The post-void residual (PVR) was measured by aspirating the residual urine remaining in the bladder after the last micturition or draining the bladder by gravity. Bladder capacity (BC) was calculated as the sum of voided volume and PVR. The bladder was harvested and its weight was recorded following euthanasia."}, "[2]": {"tested_on": "total IgE", "assay": "Serum total IgE ELISA, allergic IC in mice", "type": "in vivo, mouse", "conditions": "75 ug/kg oral vs vehicle; ovalbumin-sensitized BALB/c mice", "protocol": "Mice (BALB/c, females 8 weeks old, weight 18-20 g, Charles River, Calco ITA) were sensitized by injecting 10 ug/mouse of chicken ovalbumin from Sigma (OVA, grade V) in the presence of 4 mg of alum (SERVA, Germany) by intraperitoneal injection, once a week for 4 weeks. This induces a sustained level of IgE detectable in serum.\nOne or two weeks after the last immunization boost, sensitized mice were anesthetized (1.5% Isoflurane) and then trans-urethrally catheterized (24 gauge, ¾ in.; Angiocath, Becton-Dickson). Slight digital pressure was applied the lower abdomen to drain the urine.\nThe urinary bladders were instilled with either 150 ul of either saline or OVA alone, (1 mg/150 ul) infused at a slow rate to avoid trauma and vesico-ureteral reflux and repeated twice within a 30-min interval with the syringe kept in place on the catheter for at least 30 min. Intravesical challenge was repeated 7-10 days after the first one with the same procedure. […]\nSerum total IgE levels were measured by using a commercially available kit (BD Opteia, Mouse IgE ELISA Set Cat. No. 555248) and following manufacturer's instructions. […] After reaction stopping (H2SO4 1M, 50 ul/well) absorbance at 450 nm was recorded within 30 minutes."}, "[3]": {"tested_on": "rat bladders (CYP-induced cystitis)", "assay": "Histological analysis of rat bladders from the CYP cystitis experiment", "type": "in vivo", "protocol": "Rat bladders from the experiments of Example 1 were fixed in formalin, embedded in paraffin and stained with hematoxylin and eosin by methods known in the art.\nHistopathological examination was performed on at least 10 sections per bladder. Different inflammatory parameters were considered:\ninfiltration of inflammatory cells (mostly lymphocytes and monocytes)\nand were scored as follows: 0=normal without any sign of inflammation, 1=mild, 2=moderate, 3=severe, 4=severe signs diffused across all of the section.\nTable 3 refers to vehicle treated animals and Table 4 to “Compound A” treated animals. Each inflammatory parameter was scored from 0 to 4, where 0 is normal and 4 the most severe symptom."}, "[4]": {"conditions": "30 ug/kg oral daily for 14 days"}, "[5]": {"conditions": "75 ug/kg oral daily for 14 days"}, "[6]": {"conditions": "vs vehicle, not statistically significant"}, "[7]": {"conditions": "individual rats, score 0 (normal) to 4 (most severe), Compound A 0.1 μg/kg oral 14 days"}, "[8]": {"conditions": "mean of 4 Compound A treated rats, score 0-4"}}, "note": "Several values for one entry are separate records, joined by “and”; a condition that tells them apart may be missing. Equal entries are not always repeated."}
{"smiles": "C=C1/C(=C\\C=C2/CCC[C@]3(C)C([C@@H](C)C/C=C/C(O)(CC)CC)=CC[C@@H]23)C[C@@H](O)C[C@@H]1F", "note": "[Compound B, 1-alpha-fluoro-25-hydroxy-16,23E-diene-26,27-bishomo-20-epi-cholecalciferol]", "values": [{"measurement": "# of NVBC", "setting": "[1]; [4]", "result": 11.7}, {"measurement": "FP", "setting": "[1]; [4]", "result": 23.3, "unit": "cm H2O"}, {"measurement": "MP", "setting": "[1]; [4]", "result": 79.3, "unit": "cm H2O"}, {"measurement": "TP", "setting": "[1]; [4]", "result": 29.3, "unit": "cm H2O"}, {"measurement": "amplitude of NVBC", "setting": "[1]; [4]", "result": 16.6}, {"measurement": "Bl. Cap.", "setting": "[1]; [4]", "result": 2.0, "unit": "mL"}, {"measurement": "# of NVBC", "setting": "[1]; [5]", "result": 8.3}, {"measurement": "FP", "setting": "[1]; [5]", "result": 26.1, "unit": "cm H2O"}, {"measurement": "MP", "setting": "[1]; [5]", "result": 90.5, "unit": "cm H2O"}, {"measurement": "TP", "setting": "[1]; [5]", "result": 36.3, "unit": "cm H2O"}, {"measurement": "amplitude of NVBC", "setting": "[1]; [5]", "result": 13.6}, {"measurement": "Bl. Cap.", "setting": "[1]; [5]", "result": 2.1, "unit": "mL"}, {"measurement": "frequency of non-voiding bladder contractions", "setting": "[1]; both dosage levels (30 ug/kg, p<0.01; 75 ug/kg, p<0.005) vs vehicle", "result": "significantly reduced"}, {"measurement": "bladder capacity", "setting": "[1]; both dosage levels (30 ug/kg, p<0.01; 75 ug/kg, p<0.01) vs vehicle", "result": "increased"}, {"measurement": "amplitude of non-voiding bladder contractions", "setting": "[1]; higher dose level (75 ug/kg), not statistically significant", "result": "reduced"}, {"measurement": "filling pressure", "setting": "[1]; [6]", "result": "Marginal increase"}, {"measurement": "threshold pressure", "setting": "[1]; [6]", "result": "Marginal increase"}, {"measurement": "total amount of IgE in serum", "setting": "[2]", "result": "no significant changes"}]}
{"smiles": "CC(=O)OC1C/C(=C/C=C2\\CCC[C@]3(C)C(C(C)C/C=C\\C(O)(C(F)(F)F)C(F)(F)F)=CCC23)C[C@@H](OC(C)=O)C1", "note": "(stereo partly shown) [Compound A, 1,3-Di-O-acetyl-1,25-dihydroxy-16,23Z-diene-26,27-hexafluoro-19-nor-cholecalciferol]", "values": [{"measurement": "EPITHELIAL EROSION histological score", "setting": "[3]; [7]", "result": 0}, {"measurement": "FIBROSIS histological score", "setting": "[3]; [7]", "result": 0}, {"measurement": "HEMOSTASIS histological score", "setting": "[3]; [7]", "result": "0 and 1 and 0.5 (2×)"}, {"measurement": "INFILTRATION histological score", "setting": "[3]; [7]", "result": "0.5 (2×) and 1 and 2"}, {"measurement": "EDEMA histological score", "setting": "[3]; individual rats, score 0 normal, 1 mild, 2 moderate, 3 severe, 4 severe diffused, Compound A 0.1 μg/kg oral 14 days", "result": "0.5 and 0 (2×) and 2"}, {"measurement": "EDEMA histological score, MEAN", "setting": "[3]; [8]", "result": 0.63}, {"measurement": "EPITHELIAL EROSION histological score, MEAN", "setting": "[3]; [8]", "result": 0}, {"measurement": "FIBROSIS histological score, MEAN", "setting": "[3]; [8]", "result": 0}, {"measurement": "HEMOSTASIS histological score, MEAN", "setting": "[3]; [8]", "result": 0.5}, {"measurement": "INFILTRATION histological score, MEAN", "setting": "[3]; [8]", "result": 1}]}
